Consider five compounds from patent US7932042B1, “Methods and compositions for the treatment of psychotic disorders through the identification of the olanzapine poor response predictor genetic signature” (Suregene, LLC, priority 2010, dated 2011).

Marks after values point to notes of the source that are not given here.

Assay [1] relates to patients suffering from schizophrenia. The experiment in a line: Diagnostic performance of the OPRP test in the CATIE study for worsening symptoms (Delta PANSS ≧ 0). The assay is classed as in vivo, human. The source says: Several different measures of diagnostic performance can be used for comparing dichotomous outcomes. Two important metrics include percent positive agreement (PPA), a substitute for sensitivity, and percent negative agreement (PNA), a substitute for specificity.

Assay [2] shares this test system. Briefly: CATIE study: change in total PANSS (LOCF) by drug arm, segmented by OPRP genetic signature status. It is filed as in vivo, human. Particulars: for DELTA PANSS % (mean change in PANSS score from baseline to LOCF): more negative = greater improvement; for Mean difference olanzapine vs. named drug, CATIE OPRP+: positive = olanzapine inferior. Also on record: key to Mean difference olanzapine vs. named drug, CATIE unsegemented / Mean difference olanzapine vs. named drug, CATIE OPRP+: difference in change in total PANSS score (LOCF); decrease = better response. Here is the method:
The CATIE study, a large federally funded clinical trial designed to assess the efficacy of antipsychotics in a real world setting, is a valuable resource for determining the role of genes in baseline psychopathology and drug response (Lieberman et al., 2005; Stroup et al., 2003). […] Additionally, whole genome SNP genotyping was performed for roughly half of the trial participants (Sullivan et al., 2008). Genotype and phenotype data for the CATIE trial were recently made available to qualified researchers through the NIMH Center for Collaborative Genetic Studies on Mental Disorders. The sample consisted of a total of 738 patients. For the present study, the inventors assigned OPRP status to 628 subjects, including 411 subjects of self-reported European ancestry and 217 subjects of self-reported African ancestry. Further details on the patient population are described in the study by Sullivan and coworkers (Sullivan et al., 2008). […] The design of the CATIE study has been described in detail by others (Lieberman et al., 2005; Stroup et al., 2003). […] Instead of entering into Phase II of the trial, subjects who switched from perphenazine entered Phase IB. […] Subjects who failed Phase IB then entered Phase II. A total of 738 subjects consented to provide DNA for genetic study. […] Only retrospective genetic analyses, judged to be exempt from human studies requirements by an IRB, were conducted in the current study. For the genetic analyses presented herein, the inventors combined and evaluated drug response data for both Phase I and Phase IB of the CATIE study. All tested patients were studied using well established clinical endpoints comparing baseline, intermediate, and last observation carried forward (LOCF) for the PANSS scores using CATIE data. LOCF analysis is a commonly used clinical endpoint for clinical trials for neuropsychiatric drugs, with particular changes in PANSS scores being used to indicate clinically significant response (Leucht et al., 2009). Using the clinical data from the CAIE trial, the inventors derived several different metrics used for quantifying response in clinical trials of antipsychotic medications. […] The greater the decrease in PANSS score, the better the clinical response. The most direct measure of clinical response is absolute change in PANSS score. In addition to absolute change, the improvement is often reported as a percentage change from baseline PANSS score. […] To examine the relationship of genotypes to drug response the inventors used the publicly available PLINK software (Purcell et al., 2007; available on the world wide web at pngu.mgh.harvard.edu/purcell/[…] Helix tree (Version 6.4.1; Golden Helix, Bozeman, Mont.). The inventors used Last observation Carry Forward (LOCF) delta PANSS values as a measure of response to antipsychotic treatment. […] The inventors refined the test further by conducting association analysis on using only those subjects that comprised the TT genotype of […]. […] Presence of the TT or TC genotypes of […] in individuals that comprised the TT genotype at […] indicates OPRP positive status. […] As mentioned previously, the mean change in absolute or percent PANSS provides an important measure of efficacy in patients undergoing antipsychotic treatments. Indeed, many pivotal trials in the psychosis field used absolute and/or percentage change in PANSS Score as the primary endpoint (Leucht et al., 2009). […] Therefore, in addition to examining a categorical definition of clinically significant response, the inventors determined the impact of segmentation by OPRP genetic signature status on the quantitative measure of clinical improvement-delta PANSS for LOCF.

Assay [3] has the same test system. As to conditions: population not segmented by OPRP status; negative = greater reduction in PANSS; cited from earlier work.
Assay [4] shares this test system. As to conditions: weighted mean difference in PANSS score (absolute); negative = olanzapine superior; cited from earlier work.
Assay [5] shares this test system. As to conditions: vs first generation antipsychotics; Davis et al. (2003); cited from earlier work.
The mark [6] stands for this setting: olanzapine-treated OPRP+ group minus named comparator drug OPRP+ group, positive = poorer response to olanzapine.
[7] abbreviates: delta PANSS, negative = olanzapine superior.
[8] abbreviates: olanzapine OPRP positive versus drug OPRP positive.

For `Cc1cc2c(s1)Nc1ccccc1N=C2N1CCN(C)CC1` [Olanzapine], in assay [1] (OPRP Negative), the “Non-Worsen (number of subjects)” value worked out at 113 and the “Worsen (number of subjects, Delta PANSS ≧ 0)” value turned out to be 26. Besides, in assay [1] (OPRP Positive), the “Non-Worsen (number of subjects)” value was 8 and the “Worsen (number of subjects, Delta PANSS ≧ 0)” value is listed as 18. In addition, in assay [2] (OPRP Negative), the “Number of individuals with change in total PANSS (LOCF) ≦−10% (responders)” value worked out at 73, the “Number of individuals with change in total PANSS (LOCF) ≧−10%” value was 66, the “Number of individuals with delta PANSS (LOCF) ≦0%” value is reported as 113 and the “Number of individuals with delta PANSS (LOCF) ≧0% (worsening symptoms)” value is 26. In assay [2] (OPRP Negative), the “Responders (change in PANSS of ≦−10%)” value was 53%^* and the “Worsening (delta PANSS ≧0%)” value is listed as 19%^*. Moreover, the “DELTA PANSS % (mean change in PANSS score from baseline to LOCF)” value in assay [2] (OPRP Negative subjects) was −11.6%. Also, in assay [2] (OPRP Positive), the “Number of individuals with change in total PANSS (LOCF) ≦−10% (responders)” value is recorded as 1, the “Number of individuals with change in total PANSS (LOCF) ≧−10%” value stood at 25, the “Number of individuals with delta PANSS (LOCF) ≦0%” value is 8 and the “Number of individuals with delta PANSS (LOCF) ≧0% (worsening symptoms)” value was 18. In addition, in assay [2] (OPRP Positive), the “Responders (change in PANSS of ≦−10%)” value is 4% and the “Worsening (delta PANSS ≧0%)” value is given as 69%. The “DELTA PANSS % (mean change in PANSS score from baseline to LOCF)” value in assay [2] (OPRP Positive subjects) is 4.3%. In addition, the “DELTA PANSS % (mean change in PANSS score from baseline to LOCF)” value in assay [2] (OPRP Positive subjects, listed as olanzapine) is given as “+4.3%”. In addition, the “CATIE Effect Size” value in assay [2] (olanzapine OPRP positive versus olanzapine OPRP negative) was 1.0^a. Also, in assay [2] (olanzapine OPRP positive versus olanzapine OPRP negative, listed as olanzapine), the “CATIE Effect Size” value turned out to be 1.0. For the same compound, the “Mean difference (95% CI) in delta PANSS” value in assay [2] (olanzapine OPRP+ minus olanzapine OPRP−) is listed as 15.9 (9.7 to 22.1). In assay [2] (olanzapine OPRP+ vs olanzapine OPRP−), the “Effect size (mean difference / standard deviation)” value is listed as 1.0.
Take `OCCN1CCN(CCCN2c3ccccc3Sc3ccc(Cl)cc32)CC1` [Perphenazine]: in assay [1] (OPRP Positive), the “Non-Worsen (number of subjects)” value was 9 and the “Worsen (number of subjects, Delta PANSS ≧ 0)” value was found to be 3. Besides, in assay [2] (OPRP Negative), the “Number of individuals with change in total PANSS (LOCF) ≦−10% (responders)” value is listed as 39, the “Number of individuals with change in total PANSS (LOCF) ≧−10%” value came out at 71, the “Number of individuals with delta PANSS (LOCF) ≦0%” value stood at 65 and the “Number of individuals with delta PANSS (LOCF) ≧0% (worsening symptoms)” value is reported as 45. Besides, in assay [2] (OPRP Negative), the “Responders (change in PANSS of ≦−10%)” value stood at 35%^+ and the “Worsening (delta PANSS ≧0%)” value was found to be 41%^+++. Further, in assay [2] (OPRP Positive), the “Number of individuals with change in total PANSS (LOCF) ≦−10% (responders)” value was determined as 5, the “Number of individuals with change in total PANSS (LOCF) ≧−10%” value turned out to be 7, the “Number of individuals with delta PANSS (LOCF) ≦0%” value stood at 9 and the “Number of individuals with delta PANSS (LOCF) ≧0% (worsening symptoms)” value was 3. Moreover, in assay [2] (OPRP Positive), the “Responders (change in PANSS of ≦−10%)” value worked out at 42%^^ and the “Worsening (delta PANSS ≧0%)” value amounted to 25%^. In assay [2] (setting [6]), the “Mean difference (95% CI) in delta PANSS” value is reported as 12 (2.0 to 22.0).
Consider `OCCOCCN1CCN(C2=Nc3ccccc3Sc3ccccc32)CC1` [Quetiapine], for which, in assay [1] (OPRP Positive), the “Non-Worsen (number of subjects)” value was found to be 9 and the “Worsen (number of subjects, Delta PANSS ≧ 0)” value is reported as 9. Further, the “Effect Size vs. Placebo” value in assay [3] is given as −0.42. In assay [2] (OPRP Negative), the “Number of individuals with change in total PANSS (LOCF) ≦−10% (responders)” value was found to be 48, the “Number of individuals with change in total PANSS (LOCF) ≧−10%” value was found to be 99, the “Number of individuals with delta PANSS (LOCF) ≦0%” value amounted to 95 and the “Number of individuals with delta PANSS (LOCF) ≧0% (worsening symptoms)” value worked out at 62. Moreover, in assay [2] (OPRP Negative), the “Responders (change in PANSS of ≦−10%)” value is listed as 33%^+++ and the “Worsening (delta PANSS ≧0%)” value turned out to be 42%^+++. In addition, in assay [2] (OPRP Positive), the “Number of individuals with change in total PANSS (LOCF) ≦−10% (responders)” value came out at 4, the “Number of individuals with change in total PANSS (LOCF) ≧−10%” value is listed as 14, the “Number of individuals with delta PANSS (LOCF) ≦0%” value came out at 9 and the “Number of individuals with delta PANSS (LOCF) ≧0% (worsening symptoms)” value was found to be 9. For the same compound, in assay [2] (OPRP Positive), the “Responders (change in PANSS of ≦−10%)” value turned out to be 22% and the “Worsening (delta PANSS ≧0%)” value is listed as 50%. For the same compound, in assay [2] (setting [7]), the “Mean difference olanzapine vs. named drug, CATIE OPRP−” value is −8.4 and the “Mean difference olanzapine vs. named drug, CATIE unsegemented” value is on record as −6.2. Besides, the “Mean difference olanzapine vs. named drug, CATIE OPRP+” value in assay [2] (delta PANSS) came out at 5.5. Further, in assay [2] (setting [8]), the “CATIE Effect Size” value was 0.3^b. For the same compound, the “Mean difference (95% CI) in delta PANSS” value in assay [2] (setting [6]) was 5.5 (−4.1 to 15.0). In assay [4], the “Mean difference olanzapine vs. named drug, Meta-analysis” value is on record as −3.7. Further, the “Effect Size vs. FGA” value in assay [5] is 0.01.
For the compound `Cc1nc2n(c(=O)c1CCN1CCC(c3noc4cc(F)ccc34)CC1)CCCC2` [Risperidone], in assay [1] (OPRP Positive), the “Non-Worsen (number of subjects)” value is reported as 13 and the “Worsen (number of subjects, Delta PANSS ≧ 0)” value is reported as 7. For the same compound, the “Effect Size vs. Placebo” value in assay [3] is recorded as −0.59. Moreover, the “Mean difference olanzapine vs. named drug, Meta-analysis” value in assay [4] is given as −1.9. Moreover, the “Effect Size vs. FGA” value in assay [5] is listed as −0.25.
As for `O=C1Cc2cc(CCN3CCN(c4nsc5ccccc45)CC3)c(Cl)cc2N1` [Ziprasidone], in assay [1] (OPRP Positive), the “Non-Worsen (number of subjects)” value is given as 7 and the “Worsen (number of subjects, Delta PANSS ≧ 0)” value was determined as 4. Also, in assay [3], the “Effect Size vs. Placebo” value is reported as −0.48. Moreover, in assay [2] (OPRP Negative), the “Number of individuals with change in total PANSS (LOCF) ≦−10% (responders)” value was found to be 16, the “Number of individuals with change in total PANSS (LOCF) ≧−10%” value was determined as 53, the “Number of individuals with delta PANSS (LOCF) ≦0%” value is 35 and the “Number of individuals with delta PANSS (LOCF) ≧0% (worsening symptoms)” value was determined as 34. Moreover, in assay [2] (OPRP Negative), the “Responders (change in PANSS of ≦−10%)” value is listed as 23%^++++ and the “Worsening (delta PANSS ≧0%)” value is recorded as 49%^++++. Moreover, in assay [2] (OPRP Positive), the “Number of individuals with change in total PANSS (LOCF) ≦−10% (responders)” value is 2, the “Number of individuals with change in total PANSS (LOCF) ≧−10%” value is reported as 9, the “Number of individuals with delta PANSS (LOCF) ≦0%” value was found to be 7 and the “Number of individuals with delta PANSS (LOCF) ≧0% (worsening symptoms)” value is given as 4. In addition, in assay [2] (OPRP Positive), the “Responders (change in PANSS of ≦−10%)” value was determined as 18% and the “Worsening (delta PANSS ≧0%)” value worked out at 36%. Further, in assay [2] (setting [7]), the “Mean difference olanzapine vs. named drug, CATIE unsegemented” value was −4.9. Moreover, the “Mean difference olanzapine vs. named drug, CATIE OPRP+” value in assay [2] (delta PANSS) came to 4.8. Also, the “CATIE Effect Size” value in assay [2] (setting [8]) was 0.2^b. Besides, the “Mean difference (95% CI) in delta PANSS” value in assay [2] (setting [6]) is given as 4.8 (−2.7 to 12.3). Further, the “Mean difference olanzapine vs. named drug, Meta-analysis” value in assay [4] is on record as −8.3. Further, the “Effect Size vs. FGA” value in assay [5] was −0.04.
